Measured values taken from PubChem BioAssay AID256 (DTP/NCI, 2004).
Several values for one entry are separate records, joined by “and”; a condition that tells them apart may be missing. Equal entries are not always repeated. Toxic doses and inconclusive results are not listed.

Test system: CD2F1 mice, L1210 leukemia ip, survival T/C
Assay: NCI In Vivo Anticancer Drug Screen. Data for tumor model L1210 Leukemia (intraperitoneal) in CD2F1 (CDF1) mice
Conditions: higher = longer survival
Outline: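 Antitumor effect is scored in animals hosting a serially transplanted tumor. Values compare compound-dosed animals against vehicle-only controls as a simple quotient.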

[1] = endpoint: mean survival time, dose: 100.0 mg/kg/injection, schedule: Q04DX003 (ip), vehicle: saline with Tween-80
[2] = endpoint: mean survival time, dose: 200.0 mg/kg/injection, schedule: Q04DX003 (ip), vehicle: saline with Tween-80
[3] = endpoint: mean survival time, dose: 400.0 mg/kg/injection, schedule: Q04DX003 (ip), vehicle: saline with Tween-80

**Q.** `Cc1c(N)nc([C@H](CC(N)=O)NC[C@H](N)C(N)=O)nc1C(=O)N[C@H](C(=O)N[C@H](C)[C@@H](O)CC(=O)N[C@H](C(=O)NC(O[C@@H]1O[C@@H](C)[C@@H](N)[C@@H](O)[C@H]1O)C(O)c1nc(-c2nc(C(=O)NCCCCN)cs2)cs1)[C@@H](C)O)[C@@H](O[C@@H]1O[C@@H](CO)[C@@H](O)[C@H](O)[C@@H]1O[C@H]1O[C@H](CO)[C@@H](O)[C@H](OC(N)=O)[C@@H]1O)c1c[nH]cn1` (stereo not given in full) was tested. Which T/C (endpoint: median survival time, dose: 1.0 mg/kg/injection, schedule: Q01DX009 (ip), vehicle: saline) did it give?
**A.** 106 % of control

**Q.** And the T/C (endpoint: median survival time, dose: 2.0 mg/kg/injection, schedule: Q01DX009 (ip), vehicle: saline)?
**A.** 112 % of control

**Q.** What about the T/C (endpoint: median survival time, dose: 4.0 mg/kg/injection, schedule: Q01DX009 (ip), vehicle: saline) of the same compound?
**A.** 119 % of control

**Q.** And the T/C (endpoint: median survival time, dose: 8.0 mg/kg/injection, schedule: Q01DX009 (ip), vehicle: saline)?
**A.** 118 % of control

**Q.** What about the T/C (endpoint: median survival time, dose: 16.0 mg/kg/injection, schedule: Q01DX009 (ip), vehicle: saline) of the same compound?
**A.** 120 % of control

**Q.** What about the T/C (endpoint: median survival time, dose: 32.0 mg/kg/injection, schedule: Q01DX009 (ip), vehicle: saline) of the same compound?
**A.** 108 % of control

**Q.** `CN1CCCN(C)C1c1ccccc1` was tested. Which T/C (endpoint: mean survival time, dose: 25.0 mg/kg/injection, schedule: Q01DX009 (ip), vehicle: saline) did it give?
**A.** 97 % of control

**Q.** And the T/C (endpoint: mean survival time, dose: 50.0 mg/kg/injection, schedule: Q01DX009 (ip), vehicle: saline)?
**A.** 94 % of control

**Q.** And the T/C (endpoint: mean survival time, dose: 100.0 mg/kg/injection, schedule: Q01DX009 (ip), vehicle: saline)?
**A.** 89 % of control

**Q.** What about the T/C (endpoint: mean survival time, dose: 100.0 mg/kg/injection, schedule: Q04DX003 (ip), vehicle: saline) of the same compound?
**A.** 104 % of control

**Q.** What does the source list for `CC[C@@]1(O)C(=O)OCc2c1cc1n(c2=O)Cc2cc3c(N)cccc3nc2-1`?
**A.** T/C (endpoint: median survival time, dose: 0.25 mg/kg/injection, schedule: Q01DX005 (ip), vehicle: saline with Tween-80): 168 % of control; T/C (endpoint: median survival time, dose: 0.3 mg/kg/injection, schedule: Q01DX005 (ip), vehicle: saline with Tween-80): 150 % of control; T/C (endpoint: median survival time, dose: 0.5 mg/kg/injection, schedule: Q01DX005 (ip), vehicle: saline with Tween-80): 182 % of control and 223 % of control; T/C (endpoint: median survival time, dose: 0.63 mg/kg/injection, schedule: Q04DX002 (ip), vehicle: saline with Tween-80): 202 % of control; T/C (endpoint: median survival time, dose: 0.84 mg/kg/injection, schedule: Q01DX005 (ip), vehicle: saline with Tween-80): 182 % of control; T/C (endpoint: median survival time, dose: 1.0 mg/kg/injection, schedule: Q01DX005 (ip), vehicle: saline with Tween-80): 108 % of control; T/C (endpoint: median survival time, dose: 1.25 mg/kg/injection, schedule: Q04DX002 (ip), vehicle: saline with Tween-80): 228 % of control; T/C (endpoint: median survival time, dose: 1.39 mg/kg/injection, schedule: Q01DX005 (ip), vehicle: saline with Tween-80): 365 % of control; T/C (endpoint: median survival time, dose: 2.0 mg/kg/injection, schedule: Q01DX005 (ip), vehicle: saline with Tween-80): 87 % of control; T/C (endpoint: median survival time, dose: 2.32 mg/kg/injection, schedule: Q01DX005 (ip), vehicle: saline with Tween-80): 121 % of control; T/C (endpoint: median survival time, dose: 2.5 mg/kg/injection, schedule: Q04DX002 (ip), vehicle: saline with Tween-80): 348 % of control and 361 % of control; T/C (endpoint: median survival time, dose: 5.0 mg/kg/injection, schedule: Q04DX002 (ip), vehicle: saline with Tween-80): 220 % of control and 361 % of control; T/C (endpoint: median survival time, dose: 10.0 mg/kg/injection, schedule: Q04DX002 (ip), vehicle: saline with Tween-80): 93 % of control

**Q.** How did the T/C [1] turn out when `C=CC1(O)CC2CCC1C2` (stereo not given) was run?
**A.** 106 % of control

**Q.** What about the T/C [2] of the same compound?
**A.** 93 % of control

**Q.** And the T/C [3]?
**A.** 101 % of control

**Q.** `CN(C)c1nnc(N(C)C)s1` was tested. Which T/C [1] did it give?
**A.** 100 % of control

**Q.** What about the T/C [2] of the same compound?
**A.** 98 % of control

**Q.** And the T/C [3]?
**A.** 98 % of control

**Q.** Which T/C (endpoint: mean survival time, dose: 50.0 mg/kg/injection, schedule: Q01DX009 (ip), vehicle: saline with Tween-80) does the source give for `Cc1ccc(/C=N/NC(=O)CNC(=O)Nc2cccc(C(F)(F)F)c2)cc1` here?
**A.** 92 % of control

**Q.** And the T/C (endpoint: mean survival time, dose: 100.0 mg/kg/injection, schedule: Q01DX009 (ip), vehicle: saline with Tween-80)?
**A.** 88 % of control

**Q.** What about the T/C (endpoint: mean survival time, dose: 200.0 mg/kg/injection, schedule: Q01DX009 (ip), vehicle: saline with Tween-80) of the same compound?
**A.** 92 % of control

**Q.** How did the T/C (endpoint: median survival time, dose: 12.5 mg/kg/injection, schedule: Q01DX005 (ip), vehicle: saline with Tween-80) turn out when `Nc1nc(=O)n(C2OC(CO)C(O)C2Cl)cc1I` (stereo not given) was run?
**A.** 97 % of control

**Q.** What about the T/C (endpoint: median survival time, dose: 25.0 mg/kg/injection, schedule: Q01DX005 (ip), vehicle: saline with Tween-80) of the same compound?
**A.** 112 % of control

**Q.** What about the T/C (endpoint: median survival time, dose: 50.0 mg/kg/injection, schedule: Q01DX005 (ip), vehicle: saline with Tween-80) of the same compound?
**A.** 104 % of control

**Q.** And the T/C (endpoint: median survival time, dose: 100.0 mg/kg/injection, schedule: Q01DX005 (ip), vehicle: saline with Tween-80)?
**A.** 107 % of control

**Q.** And the T/C (endpoint: median survival time, dose: 200.0 mg/kg/injection, schedule: Q01DX005 (ip), vehicle: saline with Tween-80)?
**A.** 104 % of control

**Q.** How did the T/C (endpoint: mean survival time, dose: 100.0 mg/kg/injection, schedule: Q01DX001 (ip), vehicle: saline) turn out when `O=C(COc1ccc(S[N+](=O)[O-])cc1)c1ccccc1` was run?
**A.** 105 % of control

**Q.** What about the T/C (endpoint: mean survival time, dose: 200.0 mg/kg/injection, schedule: Q01DX001 (ip), vehicle: saline) of the same compound?
**A.** 103 % of control

**Q.** What about the T/C (endpoint: mean survival time, dose: 400.0 mg/kg/injection, schedule: Q01DX001 (ip), vehicle: saline) of the same compound?
**A.** 94 % of control
